Test results reported in patent US11420977B2, “Late SV40 (LSF) inhibitors” (Trustees of Boston University, priority 2018, dated 2022).

What was measured:
Format in all cases: cell-based
HEK-293 cells = test: MTS cell proliferation assay, HEK-293; details: Homo sapiens, HEK293, 72-hour incubation
Method: (§1) Cell lines and culture conditions: Human colon cancer cells Caco-2, HT29 and HCT15, human pancreatic cancer cells BxPC3, CFPAC-1, and CAPAN-2, liver cancer cells SNU423 and kidney cells HEK293, were obtained from American Type Culture Collection (Rockville, USA). HeLa, DLD1, U937, THP-1, and NIH3T3 cells were obtained from ATCC. Huh7 cells were obtained from (Japanese Cancer Resources Bank). HeLa cells, Huh7, DLD1 and NIH-3T3 cells were cultured in DMEM (Dulbecco's modification of Eagle's Medium; Corning) supplemented with 10% Fetal Bovine Serum (FBS; Invitrogen) and 10% Fetal Calf Serum (FCS; Atlanta Biologicals) respectively. […]
(§2) MTS cell proliferation assay: Cells were detached from the plates using trypsin (0.25% for 3 mins, ATCC) and counted using a hemocytometer and were plated at 3000-1500 cells per well, in a 96-well format. […] After a 72-hour (or 120 hrs for BxPC3, CAPAN-2, SNU423) incubation with compound or vehicle, cell growth was assessed via the Promega CellTiter 96® AQueous One Solution Cell Proliferation Assay, a colorimetric method to determine the number of viable cells. 20 μL of the CellTiter 96® AQueous One Solution Reagent was added directly into cultured wells and incubated for approximately one hour, after which the absorbance at 490 nm was read with a 96-well plate reader (Opys MR Microplate Reader). […]

HT-29 cells = test: MTS cell proliferation assay, HT-29; details: Homo sapiens, 72-hour incubation
Method: as §1, §2

THP-1 cells = test: MTS cell proliferation assay, THP-1; details: Homo sapiens, 72-hour incubation
Method: as §1, §2

CAPAN-2 cells = test: MTS cell proliferation assay, CAPAN-2; details: Homo sapiens, 120 hrs incubation
Method: as §1, §2

SNU-423 cells = test: MTS cell proliferation assay, SNU-423; details: Homo sapiens, 120 hrs incubation
Method: (§3) Cell lines and culture conditions: Human colon cancer cells Caco-2, HT29 and HCT15, human pancreatic cancer cells BxPC3, CFPAC-1, and CAPAN-2, liver cancer cells SNU423 and kidney cells HEK293, were obtained from American Type Culture Collection (Rockville, USA). HeLa, DLD1, U937, THP-1, and NIH3T3 cells were obtained from ATCC. Huh7 cells were obtained from (Japanese Cancer Resources Bank). HeLa cells, Huh7, DLD1 and NIH-3T3 cells were cultured in DMEM (Dulbecco's modification of Eagle's Medium; Corning) supplemented with 10% Fetal Bovine Serum (FBS; Invitrogen) and 10% Fetal Calf Serum (FCS; Atlanta Biologicals) respectively. U937, BxPC3, HCT15, SNU423 and THP-1 cells were grown in RPMI-1640 (Roswell Park Memorial Institute; Corning) supplemented with 10% Fetal Bovine Serum (FBS; Invitrogen). CFPAC-1 cells were cultured in Iscove's Modified Dulbecco's Medium (ATCC) supplemented with 10% FBS. CAPAN-2 and HT29 cells were cultured in McCoy's 5a medium supplemented with 10% FBS. Caco2 and HEK293 cells were grown in Eagle's Minimum Essential Medium (ATCC) with final 20% FBS concentration. All cells were maintained at 37° C. in 5% CO2 at constant 70% humidity.
(§4) MTS cell proliferation assay: Cells were detached from the plates using trypsin (0.25% for 3 mins, ATCC) and counted using a hemocytometer and were plated at 3000-1500 cells per well, in a 96-well format. The cells were seeded in the inner wells of 96 well plates, and media was added to the outer wells (blank). For NIH-3T3, 1500 cells were seeded in the inner wells of 96-well plates, and after 20 hours cells were treated with compound or DMSO (vehicle control) at appropriate concentrations (DMSO at final concentration of 1%). For other adherent cells 3000 HeLa, BxPC3, CFPAC-1, CAPAN-2, HEK293, HCT15, HT29, CaCo2, DLD1, Huh7 or SNU423 cells were seeded in in each well approximately 20 hrs prior to the treatment. For U937 and THP-1 suspension cells, 2500 cells were added to the wells of a 96-well plate on the day of treatment. After a 72-hour (or 120 hrs for BxPC3, CAPAN-2, SNU423) incubation with compound or vehicle, cell growth was assessed via the Promega CellTiter 96® AQueous One Solution Cell Proliferation Assay, a colorimetric method to determine the number of viable cells. 20 μL of the CellTiter 96® AQueous One Solution Reagent was added directly into cultured wells and incubated for approximately one hour, after which the absorbance at 490 nm was read with a 96-well plate reader (Opys MR Microplate Reader). GI50 values were determined from plots of the percentage of compound-treated cell growth to vehicle cell growth vs. compound concentration (GraphPad Prism; non-linear regression, log inhibitor verse normalized response with variable slope).

CFPAC-1 cells = test: MTS cell proliferation assay, CFPAC-1; details: Homo sapiens, 72-hour incubation
Method: as §1, §2

HeLa cells = test: MTS cell proliferation assay, HeLa; details: Homo sapiens, 72-hour incubation
Method: as §3, with “All cells were maintained at 37° C. in 5% CO2 at constant 70% humidity.” left out
(§5) MTS cell proliferation assay: Cells were detached from the plates using trypsin (0.25% for 3 mins, ATCC) and counted using a hemocytometer and were plated at 3000-1500 cells per well, in a 96-well format. […] After a 72-hour (or 120 hrs for BxPC3, CAPAN-2, SNU423) incubation with compound or vehicle, cell growth was assessed via the Promega CellTiter 96® AQueous One Solution Cell Proliferation Assay, a colorimetric method to determine the number of viable cells. 20 μL of the CellTiter 96® AQueous One Solution Reagent was added directly into cultured wells and incubated for approximately one hour, after which the absorbance at 490 nm was read with a 96-well plate reader (Opys MR Microplate Reader). GI50 values were determined from plots of the percentage of compound-treated cell growth to vehicle cell growth vs. compound concentration (GraphPad Prism; non-linear regression, log inhibitor verse normalized response with variable slope).

BxPC-3 cells = test: MTS cell proliferation assay, BxPC-3; details: Homo sapiens, 120 hrs incubation
Method: as §1, §2

U937 cells = test: MTS cell proliferation assay, U937; details: Homo sapiens, U-937, 72-hour incubation
Method: as §1, §2

RPE-hTERT Flp-In cells = test: FQI34/FQI1 comparison, mitotic defects in RPE-hTERT Flp-In cells
Method: RPE-hTERT Flp-In cells were incubated in serum-free DMEM:F12 media for 24 hours to synchronize the cells in G0/G1. Cells were stimulated to reenter the cell cycle with DMEM:F12 media containing 10% Fetal Bovine Serum. After 24 hours, the cells were treated with DMSO (vehicle), FQI1 (2.5 μM or 5 μM), or FQI34 (250 nM or 500 nM) for one hour. The cells were washed twice with 1×Phosphate-buffered Saline and fixed with PHEM (3.7% formaldehyde in 100 mM PIPES at pH 6.8, 10 mM EGTA, 1 mM magnesium chloride, and 0.2% Triton X-100) for 10 minutes at room temperature. The fixed cells were stained for α-tubulin using a mouse anti-α-tubulin antibody (Fisher #62204). Secondary antibodies were: DMSO/FQI1 samples—goat anti-mouse IgG conjugated to Alexa 546 (Thermo Fisher #A11003); FQI34 samples—goat anti-mouse IgG conjugated to Texas Red (Fisher #T-862). DNA was stained with Hoechst 33342. Cells were imaged using a Nikon NiE using the 40× objective and images were captured using a DS-Qi1 Mc 12 bit camera. Scale bars and merged images were generated using Fiji software.

CaCo-2 cells = test: MTS cell proliferation assay, CaCo-2; details: Homo sapiens, 72-hour incubation
Method: as §1, §2

NIH 3T3 cells = test: MTS cell proliferation assay, NIH 3T3; details: Mus musculus, NIH3T3, 72-hour incubation
Method: as §3, with “All cells were maintained at 37° C. in 5% CO2 at constant 70% humidity.” left out
as §5

HCT-15 cells = test: MTS cell proliferation assay, HCT-15; details: Homo sapiens, 72-hour incubation
Method: as §1, §2

HuH7 cells = test: MTS cell proliferation assay, HuH7; details: Homo sapiens, Huh-7, 72-hour incubation
Method: as §3, §4

Structure (SMILES): CCOc1cc(N(C)C)ccc1C1CC(=O)Nc2cc3c(cc21)OCO3 (stereo not drawn) [FQI-34]
- GI50 (HEK-293 cells): 219 nM
- GI50 (HT-29 cells): 316 nM
- GI50 (THP-1 cells): 4800 nM
- GI50 (CAPAN-2 cells): 239 nM
- GI50 (SNU-423 cells): 384 nM
- GI50 (CFPAC-1 cells): 676 nM
- GI50 (HeLa cells): 462 nM
- GI50 (BxPC-3 cells): 270 nM
- GI50 (U937 cells): 250 nM
- potency for causing mitotic defects relative to FQI1 (RPE-hTERT Flp-In cells; FQI34 250 nM or 500 nM vs FQI1 2.5 μM or 5 μM, one hour): at least 10 fold
- chromosome and spindle phenotype (DNA and α-tubulin immunofluorescence) (RPE-hTERT Flp-In cells; one hour treatment, FIG. 33): condensed, but nonaligned chromosomes and disrupted spindles
- GI50 (CaCo-2 cells): 501 nM
- GI50 (NIH 3T3 cells): 730 nM
- GI50 (HCT-15 cells): 224 nM
- GI50 (HuH7 cells): 141 nM
